Target: T1, BlrB (Cereibacter sphaeroides, UniProt Q3IYE4)
T1 construct: full-length short BLUF protein, residues 1-140, pET28a(+), His-tag removed by thrombin, E. coli BL21(DE3) glnA knockout; unlabelled and 15N-Gln samples
Assay: light-induced FTIR difference spectroscopy of the reconstituted holoprotein
Assay type: binding
Conditions: FAD added for full reconstitution; flavin C4=O band of bound chromophore; pH 8.0; 20 °C

T1 sequence (Q3IYE4 entry or part of it): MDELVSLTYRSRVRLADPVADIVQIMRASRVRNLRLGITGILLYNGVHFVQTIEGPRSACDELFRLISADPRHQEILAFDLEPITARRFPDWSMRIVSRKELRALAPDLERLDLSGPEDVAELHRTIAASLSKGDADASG

## Cc1cc2nc3c(=O)[nH]c(=O)nc-3n(C[C@H](O)[C@H](O)[C@H](O)COP(=O)(O)OP(=O)(O)OC[C@H]3O[C@@H](n4cnc5c(N)ncnc54)[C@H](O)[C@@H]3O)c2cc1C [flavin adenine dinucleotide]
  light-induced FTIR difference spectroscopy of the reconstituted holoprotein: includes strong contributions from the C4=O stretch of flavin with an amide I band

Source: publication PMC4780082, “Evidence for Tautomerisation of Glutamine in BLUF Blue Light Receptors by Vibrational Spectroscopy and Computational Chemistry” (Scientific Reports, 2016)
